Literature values as cited in patent US20110269740A1, “JAK KINASE MODULATING COMPOUNDS AND METHODS OF USE THEREOF” (Ambit Biosciences Corporation, priority 2008, published 2011).
Read-outs that look alike come from different tables or passages of the source.

Key:
[1] = system: BCR-Abl+BaF3 cells which carried the Abl T315I mutation; conditions: imatinib-resistant
[2] = system: CML cell lines such as 32Dp210 and K562, as well as mouse Bcr-Abl+32D cells; conditions: CML cell lines 32Dp210, K562, mouse Bcr-Abl+32D
[3] = system: prostate cancer cell DU145
transplant rejection [4] = conditions: non-human primate renal transplant model, orally available
transplant rejection [5] = conditions: murine heterotopic heart transplant model, orally available

| Compound | apoptosis [1] | downstream effect on c-Myc [2] | apoptosis [3] | prevention of transplant rejection (transplant rejection [4]) | prevention of transplant rejection (transplant rejection [5]) |
| --- | --- | --- | --- | --- | --- |
| N#C/C(=C/c1ccc(O)c(O)c1)C(=O)NCc1ccccc1 [AG490] | induce apoptosis | reduction of c-Myc | induced apoptosis |  |  |
| C[C@@H]1CCN(C(=O)CC#N)C[C@@H]1N(C)c1ncnc2[nH]ccc12 [CP-690550] |  |  |  | efficacy in preventing transplant rejection | efficacy in preventing transplant rejection |
